# Measurements reported in US12226409B2, “Treatment of hepatocellular carcinoma” (Eisai R&D Management Co., Ltd., priority 2017, dated 2025).
# Tests used:
# unresectable HCC = experiment: Open-label phase 3 noninferiority study, efficacy (tumor assessment by mRECIST); type: in vivo, human
# From the text: (§1) The primary endpoint was overall survival.
# Patients who were eligible for enrollment had unresectable HCC with diagnosis confirmed histologically or cytologically or with diagnosis confirmed clinically in accordance with the American Association for the Study of Liver Diseases criteria. Included patients also had ≥1 measureable target lesion, based on modified Response Evaluation Criteria in Solid Tumors (Lencioni 2010); Barcelona Clinic Liver Cancer stage B or C categorization (Bruix Hepatology 2011); Child-Pugh class A; and Eastern Cooperative Oncology Group performance status ≤1. All eligible patients had controlled blood pressure (≤150/90 mm Hg), and adequate organ function. Patients with ≥50% liver occupation, clear bile duct invasion, or portal vein invasion at the main portal vein were excluded. Patients also were excluded if that had received prior systemic therapy for HCC.
# (§2) Tumors were evaluated in accordance with mRECIST (Lencioni R., Semin Liver Dis., 30(1):52-60, 2010); RECIST 1.1 was applied for nonhepatic lesions (Eisenhauer, Eur J Cancer, 45(2):228-47, 2009). The liver was examined with computed tomography or magnetic resonance imaging was performed using a triphasic scanning technique. Assessments were performed every 8 weeks until disease progression. Quality of life questionnaires were administered at baseline, on day 1 of each subsequent treatment cycle, and at the off-treatment visit.
# The primary endpoint of overall survival was first tested for noninferiority then for superiority. The required number of events for the primary analysis was 700 deaths, based on the fill analysis set. The HR and its 95% confidence interval (CI) were estimated from a Cox proportional hazard model with treatment group as a factor and with the analysis stratified according to the same factors applied for randomization.
# A fixed-sequence procedure was followed to control the overall type I error rate of analyses for both the primary and secondary efficacy endpoints at α=0.05 (2-sided). After noninferiority was declared, secondary efficacy endpoints were tested. Differences in progression-free survival and time to progression were evaluated using a stratified log-rank test with randomization stratification factors, with the associated HR and its 95% CI. A difference in the objective response rate was evaluated using the Cochran-Mantel-Haenszel chi-square test with randomized stratification factors as strata, with associated odds ratio and its 95% CI. To assess futility, 2 interim analyses (at 30% and 70% of the target number of events) were performed using Bayesian predictive probability in a noninferiority design by the independent data monitoring committee.
# [1] = tested on: unresectable hepatocellular carcinoma (HCC); experiment: REFLECT study, efficacy per independent review; type: in vivo, human
# Protocol: The efficacy of LENVIMA was evaluated in a randomized, open-label, multicenter, international study (REFLECT; […]) conducted in patients with previously untreated unresectable hepatocellular carcinoma (HCC).
# [2] = tested on: patients with unresectable HCC; experiment: Quality of life, EORTC QLQ-C30 and QLQ-HCC18 questionnaires; type: in vivo, human; conditions: role functioning, pain, diarrhea (QLQ-C30); nutrition, body image (QLQ-HCC18)
# Protocol: as §1, §2
# [3] = Phase 1 study of lenvatinib in HCC, plasma concentration; type: in vivo, human; conditions: HCC patients 12 mg per day vs solid tumor patients 25 mg per day
# [4] = tested on: lenvatinib-treated subjects; experiment: Clinical studies with lenvatinib, posterior reversible encephalopathy syndrome; conditions: human, in vivo
# From the text: Mild to severe hypertension also could be present. A magnetic resonance imaging (MRI) was necessary to confirm the diagnosis of PRES. In subjects with signs or symptoms of PRES, appropriate measures were to be taken to control blood pressure, and instructions in Table 6 were followed.
# CYP3A4 = biological target: T1, CYP3A4 (Homo sapiens, UniProt P08684); experiment: Drug interaction with midazolam (CYP3A4 substrate); conditions: projected
# T1 construct: from tissue; host or cells: human subjects (in vivo)
# T1 sequence (P08684 whole entry): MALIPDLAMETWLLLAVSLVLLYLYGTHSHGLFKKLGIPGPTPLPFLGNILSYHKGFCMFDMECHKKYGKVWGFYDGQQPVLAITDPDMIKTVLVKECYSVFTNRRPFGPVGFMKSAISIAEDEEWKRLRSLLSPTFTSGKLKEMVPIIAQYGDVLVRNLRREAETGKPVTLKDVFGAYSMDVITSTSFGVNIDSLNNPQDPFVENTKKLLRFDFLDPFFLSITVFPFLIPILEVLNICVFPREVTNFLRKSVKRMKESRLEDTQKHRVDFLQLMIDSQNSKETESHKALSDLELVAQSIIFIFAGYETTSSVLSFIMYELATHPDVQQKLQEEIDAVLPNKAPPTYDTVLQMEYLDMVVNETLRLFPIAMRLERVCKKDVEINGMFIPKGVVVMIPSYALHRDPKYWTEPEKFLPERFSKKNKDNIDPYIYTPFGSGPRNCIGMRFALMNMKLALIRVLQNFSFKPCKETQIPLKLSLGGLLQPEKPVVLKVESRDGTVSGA
# CYP2C9 = CYP2C9 (Homo sapiens, UniProt P11712); experiment: In vitro CYP inhibition; type: in vitro ADME
# CYP2C9, sequence (P11712 whole entry): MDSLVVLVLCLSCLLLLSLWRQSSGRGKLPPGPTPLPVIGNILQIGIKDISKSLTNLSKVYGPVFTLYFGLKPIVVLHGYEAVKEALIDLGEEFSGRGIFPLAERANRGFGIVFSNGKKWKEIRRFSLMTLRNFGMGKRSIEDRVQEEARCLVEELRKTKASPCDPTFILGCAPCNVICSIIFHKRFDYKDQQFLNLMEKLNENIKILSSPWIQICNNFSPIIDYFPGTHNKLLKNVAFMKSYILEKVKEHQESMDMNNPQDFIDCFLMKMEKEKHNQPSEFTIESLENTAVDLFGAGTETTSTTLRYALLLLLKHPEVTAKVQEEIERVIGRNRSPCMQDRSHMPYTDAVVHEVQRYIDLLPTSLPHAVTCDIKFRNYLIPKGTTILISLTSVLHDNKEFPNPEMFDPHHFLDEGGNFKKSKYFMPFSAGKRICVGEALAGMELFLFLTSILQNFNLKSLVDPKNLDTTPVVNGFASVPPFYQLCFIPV
# CYP2C19 = CYP2C19 (Homo sapiens, UniProt P33261); experiment: In vitro CYP inhibition; type: in vitro ADME
# CYP2C19, sequence (P33261 whole entry): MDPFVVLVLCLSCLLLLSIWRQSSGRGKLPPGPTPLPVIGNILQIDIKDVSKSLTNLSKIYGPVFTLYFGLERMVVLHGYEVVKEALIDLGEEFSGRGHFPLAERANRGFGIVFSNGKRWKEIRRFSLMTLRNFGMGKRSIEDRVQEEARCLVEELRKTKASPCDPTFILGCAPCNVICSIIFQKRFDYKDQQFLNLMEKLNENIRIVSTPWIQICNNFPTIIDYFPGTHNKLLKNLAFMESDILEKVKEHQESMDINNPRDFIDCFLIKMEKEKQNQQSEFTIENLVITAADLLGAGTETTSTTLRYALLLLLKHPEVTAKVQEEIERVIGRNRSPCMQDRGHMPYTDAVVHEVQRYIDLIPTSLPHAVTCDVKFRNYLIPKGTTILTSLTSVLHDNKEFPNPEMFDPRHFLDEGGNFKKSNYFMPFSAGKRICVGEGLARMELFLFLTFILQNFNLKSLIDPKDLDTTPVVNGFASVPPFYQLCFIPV
# CYP3A [5] = experiment: In vitro CYP inhibition; type: in vitro ADME
# CYP3A [6] = experiment: In vitro CYP induction; type: in vitro ADME
# [7] = tested on: patients with unresectable HCC; conditions: human, in vivo
# From the text: Randomization was stratified according to region (Asia-Pacific or Western regions), macroscopic portal vein invasion and/or extrahepatic spread (yes or no), Eastern Cooperative Oncology Group performance status (0 or 1), and body weight (<60 kg or ≥60 kg).
# Safety assessments included recording of vital signs, hematologic and biochemical laboratory testing, urinalysis, and electrocardiography.
smiles,measurement,setting,value
"COc1cc2nccc(Oc3ccc(NC(=O)NC4CC4)c(Cl)c3)c2cc1C(N)=O [Lenvatinib, 4-(3-chloro-4(cyclopropylaminocarbonyl)aminophenoxy)-7-methoxy-6-quinolinecarboxamide]",Primary reason for discontinuation of treatment: Disease Progression,unresectable HCC; Full Analysis Set,311 (65.1) n (%)
same,Durable stable disease lasting ≥23 wk,unresectable HCC; in vivo,167 no.
same,Median overall survival,unresectable HCC; in vivo,13.6 mo
same,Median progression-free survival,unresectable HCC; mRECIST,7.4 mo
same,Median time to progression,unresectable HCC; mRECIST,8.9 mo
same,Median OS,[1]; in vivo,13.6 months
same,Median PFS,"[1]; mRECIST, independent review",7.3 months
same,Objective response rate,"[1]; mRECIST, independent review",41%
same,time to clinically meaningful deterioration of quality of life,[2],clinically meaningful delay in deterioration
same,lenvatinib plasma concentration at 24 hours,[3],similar
same,events of posterior reversible encephalopathy syndrome (PRES),[4],less than 1%
same,drug-drug interaction risk with midazolam,CYP3A4,no projected significant drug-drug interaction risk
same,inhibition of CYP2C9,CYP2C9,inhibits
same,inhibition of CYP2C19,CYP2C19,inhibits
same,inhibition of CYP3A,CYP3A [5],inhibits
same,induction of CYP3A,CYP3A [6],induces
same,treatment-related fatal cerebral hemorrhage,[7],3 patients
same,treatment-related fatal hepatic failure,[7],3 patients
same,treatment-related fatal respiratory failure,[7],2 patients
